Earlier results, collected in US20240122227A1, “AEROSOLIZABLE MATERIAL” (Nicoventures Trading Limited, priority 2019, published 2024).

Target: CB2 receptor compared to the CB1 receptor (Homo sapiens, UniProt P34972)
Settings: see Br J Pharmacol. 2001 October; 134(4): 845-852

Sequence of CB2 receptor compared to the CB1 receptor (P34972 whole entry): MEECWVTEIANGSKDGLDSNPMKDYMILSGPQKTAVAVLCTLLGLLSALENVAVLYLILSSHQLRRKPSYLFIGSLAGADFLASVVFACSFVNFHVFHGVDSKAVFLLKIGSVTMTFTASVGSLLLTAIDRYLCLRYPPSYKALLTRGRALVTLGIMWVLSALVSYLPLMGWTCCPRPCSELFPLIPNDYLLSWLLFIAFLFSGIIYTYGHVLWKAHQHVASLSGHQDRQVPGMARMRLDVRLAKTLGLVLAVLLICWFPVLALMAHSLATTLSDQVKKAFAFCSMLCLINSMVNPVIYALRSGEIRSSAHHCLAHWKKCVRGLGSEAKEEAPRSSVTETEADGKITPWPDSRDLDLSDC

Row | Structure (SMILES) | selectivity for the CB2 receptor compared to the CB1 receptor
1 | C=C(C)[C@@H]1CCC(C)=C[C@H]1c1c(O)cc(CCCCC)cc1O [(−)-cannabidiol] | does not show any selectivity between the two receptors
2 | C=C(C)[C@H]1CCC(C)=C[C@@H]1c1c(O)cc(CCCCC)cc1O [(+)-cannabidiol] | increased selectivity for the CB2 receptor compared to the CB1 receptor
